This note sets out measurements from ChEMBL document CHEMBL5104147, “Biocatalytic synthesis and evaluation of antioxidant and antibacterial activities of hydroxyequols” (Bioorg Med Chem Lett, 2022).

Assay type in all cases: functional
Experiment [1] is described as follows: Antioxidant activity assessed as trolox equivalent of DPPH radical scavenging activity by DPPH assay relative to trolox. Background: Loss of DPPH colour is used to gauge radical scavenging.
The nature of experiment [2]: Antioxidant activity assessed as DPPH radical scavenging activity by DPPH assay.
Experiment [3] deals with Escherichia coli. In words: Antibacterial activity against Escherichia coli assessed as inhibition of bacterial growth.
Experiment [4] has as its system Escherichia coli. In words: Bactericidal activity against Escherichia coli assessed as decrease in cell survival.
Experiment [5] relates to Bacillus subtilis. In words: Antibacterial activity against Bacillus subtilis assessed as inhibition of bacterial growth.
Experiment [6] has as its system Bacillus subtilis. In words: Bactericidal activity against Bacillus subtilis assessed as decrease in cell survival.

Values after ≈ are worked out from the molar mass of the structure shown. Some results are limits rather than exact numbers.

For orientation: IC50 means the midpoint of a concentration-inhibition curve. In general, MIC refers to the lowest concentration found to suppress growth. As a reminder, the MBC is the lowest tested concentration that kills the bacteria rather than only halting them. `Oc1ccc2c(c1)OC[C@H](c1ccc(O)c(O)c1)C2`: in experiment [1], the Ratio IC50 was found to be 1.02. Besides, in experiment [2], the IC50 came to 250 µM. Also, the MIC in the experiment on Escherichia coli [3] worked out at 512 µg/mL (≈ 1980 µM); in the experiment on Bacillus subtilis [5], 256 µg/mL (≈ 991 µM). The MBC in the experiment on Escherichia coli [4] and in the experiment on Bacillus subtilis [6] was 512 µg/mL (≈ 1980 µM) each time.
With `O=c1c(-c2ccc(O)cc2)coc2cc(O)ccc12` [DAIDZEIN], the MIC in the experiment with Escherichia coli [3] and with Bacillus subtilis [5] was above 1020 µg/mL each time.
Take `Oc1ccc([C@H]2COc3cc(O)c(O)cc3C2)cc1`: the Ratio IC50 in experiment [1] amounted to 1.08. For the same compound, the IC50 in experiment [2] stood at 233 µM. For the same compound, the MIC amounted to 64 µg/mL (≈ 248 µM) with Escherichia coli [3] and 128 µg/mL (≈ 496 µM) in the experiment with Bacillus subtilis [5]. For the same compound, the values for the MBC in the experiment with Escherichia coli [4] and in the experiment on Bacillus subtilis [6] were 64 µg/mL (≈ 248 µM) and 128 µg/mL (≈ 496 µM), respectively.
Consider `Oc1ccc([C@H]2COc3cc(O)ccc3C2)cc1` [AUS-131], for which the Ratio IC50 in experiment [1] was 4.99 10^-3No_unit. Also, the IC50 in experiment [2] was 52000 µM. Besides, the results for the MIC in the experiment on Escherichia coli [3] and in the experiment on Bacillus subtilis [5] were 256 µg/mL (≈ 1060 µM) and 64 µg/mL (≈ 264 µM), respectively. For the same compound, the MBC was above 1020 µg/mL with Escherichia coli [4] and 256 µg/mL (≈ 1060 µM) in the experiment with Bacillus subtilis [6].
Take `Oc1ccc([C@H]2COc3cc(O)c(O)cc3C2)cc1O`: the Ratio IC50 in experiment [1] came out at 2.28. The IC50 in experiment [2] was found to be 112 µM. Moreover, the MIC with Escherichia coli [3] was 128 µg/mL (≈ 467 µM); in the experiment with Bacillus subtilis [5], 256 µg/mL (≈ 933 µM). In addition, the values for the MBC with Escherichia coli [4] and in the experiment on Bacillus subtilis [6] were above 1020 µg/mL and 256 µg/mL (≈ 933 µM), respectively.
Regarding `Cc1c(C)c2c(c(C)c1O)CCC(C)(C(=O)O)O2` (configuration not stated) [TROLOX], in experiment [2], the IC50 was 249 µM.
